Assay results as given in BindingDB's records for doi:10.1021/acs.jnatprod.9b01022 (Taipei Chang Gung Memorial Hospital, 2020).

What was measured:
[1] = Reversal of human ABCG2-mediated multidrug resistance in HEK293/R482 cells assessed as effect on topotecan-induced cytotoxicity by measuring topotecan IC50 at 2 uM after 72 hrs by CCK8 assay (Rvb = 201.31 +/- 25.89 nM)
[2] = Reversal of human ABCG2-mediated multidrug resistance in HEK293/R482 cells assessed as effect on topotecan-induced cytotoxicity by measuring topotecan IC50 at 0.5 uM after 72 hrs by CCK8 assay (Rvb = 201.31 +/- 25.89 nM)
[3] = Reversal of human ABCG2-mediated multidrug resistance in HEK293/R482 cells assessed as effect on mitoxantrone-induced cytotoxicity by measuring mitoxantrone IC50 at 0.5 uM after 72 hrs by CCK8 assay (Rvb = 50.66 +/- 6.88 nM)
[4] = Reversal of ABCG2 (unknown origin)-mediated multidrug resistance in human S1-M1-80 cells assessed as effect on topotecan-induced cytotoxicity by measuring topotecan IC50 at 1 uM after 72 hrs by MTT assay (Rvb = 10.14 +/- 2.820 uM)
[5] = Reversal of human ABCC1-mediated multidrug resistance in HEK293/MRP1 cells assessed as effect on etoposide-induced cytotoxicity by measuring etoposide IC50 at 0.5 uM after 72 hrs by CCK8 assay (Rvb = 63.34 +/- 7.92 uM)
[6] = Reversal of ABCG2 (unknown origin)-mediated multidrug resistance in human S1-M1-80 cells assessed as effect on topotecan-induced cytotoxicity by measuring topotecan IC50 at 0.5 uM after 72 hrs by MTT assay (Rvb = 10.14 +/- 2.820 uM)
[7] = Reversal of ABCG2 (unknown origin)-mediated multidrug resistance in human S1-M1-80 cells assessed as effect on mitoxantrone-induced cytotoxicity by measuring mitoxantrone IC50 at 2 uM after 72 hrs by MTT assay (Rvb = 73.62 +/- 7.20 uM)
[8] = Reversal of ABCG2 (unknown origin)-mediated multidrug resistance in human S1-M1-80 cells assessed as effect on topotecan-induced cytotoxicity by measuring topotecan IC50 at 2 uM after 72 hrs by MTT assay (Rvb = 10.14 +/- 2.820 uM)
[9] = Reversal of ABCG2 (unknown origin)-mediated multidrug resistance in human S1-M1-80 cells assessed as effect on mitoxantrone-induced cytotoxicity by measuring mitoxantrone IC50 at 1 uM after 72 hrs by MTT assay (Rvb = 73.62 +/- 7.20 uM)
[10] = Reversal of ABCG2 (unknown origin)-mediated multidrug resistance in human H460-MX20 cells assessed as effect on topotecan-induced cytotoxicity by measuring topotecan IC50 at 0.5 uM after 72 hrs by MTT assay (Rvb = 1319.20 +/- 356.14 nM)
[11] = Reversal of ABCG2 (unknown origin)-mediated multidrug resistance in human H460-MX20 cells assessed as effect on mitoxantrone-induced cytotoxicity by measuring mitoxantrone IC50 at 3 uM after 72 hrs by MTT assay (Rvb = 1160.60 +/- 365.72 nM)
[12] = Reversal of human ABCG2-mediated multidrug resistance in HEK293/R482 cells assessed as effect on mitoxantrone-induced cytotoxicity by measuring mitoxantrone IC50 at 3 uM after 72 hrs by CCK8 assay (Rvb = 50.66 +/- 6.88 nM)
[13] = Reversal of ABCG2 (unknown origin)-mediated multidrug resistance in human S1-M1-80 cells assessed as effect on mitoxantrone-induced cytotoxicity by measuring mitoxantrone IC50 at 3 uM after 72 hrs by MTT assay (Rvb = 73.62 +/- 7.20 uM)
[14] = Reversal of ABCG2 (unknown origin)-mediated multidrug resistance in human H460-MX20 cells assessed as effect on mitoxantrone-induced cytotoxicity by measuring mitoxantrone IC50 at 2 uM after 72 hrs by MTT assay (Rvb = 1160.60 +/- 365.72 nM)
[15] = Reversal of ABCG2 (unknown origin)-mediated multidrug resistance in human S1-M1-80 cells assessed as effect on mitoxantrone-induced cytotoxicity by measuring mitoxantrone IC50 at 0.5 uM after 72 hrs by MTT assay (Rvb = 73.62 +/- 7.20 uM)
[16] = Reversal of human ABCC1-mediated multidrug resistance in HEK293/MRP1 cells assessed as effect on etoposide-induced cytotoxicity by measuring etoposide IC50 at 2 uM after 72 hrs by CCK8 assay (Rvb = 63.34 +/- 7.92 uM)
[17] = Reversal of ABCG2 (unknown origin)-mediated multidrug resistance in human H460-MX20 cells assessed as effect on topotecan-induced cytotoxicity by measuring topotecan IC50 at 1 uM after 72 hrs by MTT assay (Rvb = 1319.20 +/- 356.14 nM)
[18] = Reversal of human ABCG2-mediated multidrug resistance in HEK293/R482 cells assessed as effect on topotecan-induced cytotoxicity by measuring topotecan IC50 at 3 uM after 72 hrs by CCK8 assay (Rvb = 201.31 +/- 25.89 nM)
[19] = Reversal of ABCG2 (unknown origin)-mediated multidrug resistance in human H460-MX20 cells assessed as effect on mitoxantrone-induced cytotoxicity by measuring mitoxantrone IC50 at 0.5 uM after 72 hrs by MTT assay (Rvb = 1160.60 +/- 365.72 nM)
[20] = Reversal of ABCG2 (unknown origin)-mediated multidrug resistance in human S1-M1-80 cells assessed as effect on topotecan-induced cytotoxicity by measuring topotecan IC50 at 3 uM after 72 hrs by MTT assay (Rvb = 10.14 +/- 2.820 uM)
[21] = Reversal of human ABCG2-mediated multidrug resistance in HEK293/R482 cells assessed as effect on mitoxantrone-induced cytotoxicity by measuring mitoxantrone IC50 at 2 uM after 72 hrs by CCK8 assay (Rvb = 50.66 +/- 6.88 nM)
[22] = Reversal of human ABCG2-mediated multidrug resistance in HEK293/R482 cells assessed as effect on mitoxantrone-induced cytotoxicity by measuring mitoxantrone IC50 at 1 uM after 72 hrs by CCK8 assay (Rvb = 50.66 +/- 6.88 nM)
[23] = Reversal of ABCG2 (unknown origin)-mediated multidrug resistance in human H460-MX20 cells assessed as effect on topotecan-induced cytotoxicity by measuring topotecan IC50 at 3 uM after 72 hrs by MTT assay (Rvb = 1319.20 +/- 356.14 nM)
[24] = Reversal of human ABCG2-mediated multidrug resistance in HEK293/R482 cells assessed as effect on topotecan-induced cytotoxicity by measuring topotecan IC50 at 1 uM after 72 hrs by CCK8 assay (Rvb = 201.31 +/- 25.89 nM)
[25] = Reversal of human ABCC1-mediated multidrug resistance in HEK293/MRP1 cells assessed as effect on etoposide-induced cytotoxicity by measuring etoposide IC50 at 1 uM after 72 hrs by CCK8 assay (Rvb = 63.34 +/- 7.92 uM)
[26] = Reversal of ABCG2 (unknown origin)-mediated multidrug resistance in human H460-MX20 cells assessed as effect on mitoxantrone-induced cytotoxicity by measuring mitoxantrone IC50 at 1 uM after 72 hrs by MTT assay (Rvb = 1160.60 +/- 365.72 nM)
[27] = Reversal of ABCG2 (unknown origin)-mediated multidrug resistance in human H460-MX20 cells assessed as effect on topotecan-induced cytotoxicity by measuring topotecan IC50 at 2 uM after 72 hrs by MTT assay (Rvb = 1319.20 +/- 356.14 nM)
[28] = Reversal of human ABCC1-mediated multidrug resistance in HEK293/MRP1 cells assessed as effect on etoposide-induced cytotoxicity by measuring etoposide IC50 at 3 uM after 72 hrs by CCK8 assay (Rvb = 63.34 +/- 7.92 uM)

Question: Which results are given for `C=CC(C)(C)c1cc(/C=C/C(=O)c2ccc(O)cc2)c(OC)cc1O` [3-(4-hydroxy-2-methoxy-5-(2-methylbut-3-en-2-yl)phenyl)-1-(4-hydroxyphenyl)prop-2-en-1-one]?
Answer: IC50 [1]: 44 nM; IC50 [2]: 90 nM; IC50 [3]: 19 nM; IC50 [4]: 610 nM; IC50 [5]: 53.6 µM; IC50 [6]: 1030 nM; IC50 [7]: 2630 nM; IC50 [8]: 410 nM; IC50 [9]: 6.8 µM; IC50 [10]: 367 nM; IC50 [11]: 70 nM; IC50 [12]: 6.2 nM; IC50 [13]: 1530 nM; IC50 [14]: 75 nM; IC50 [15]: 39.5 µM; IC50 [16]: 66.7 µM; IC50 [17]: 144 nM; IC50 [18]: 42 nM; IC50 [19]: 442 nM; IC50 [20]: 310 nM; IC50 [21]: 7.8 nM; IC50 [22]: 7.1 nM; IC50 [23]: 130 nM; IC50 [24]: 51 nM; IC50 [25]: 49.3 µM; IC50 [26]: 86 nM; IC50 [27]: 148 nM; IC50 [28]: 56.5 µM
